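Protocol summary: plate cells (96-well), add compound at 5 concentrations, incubate 48 h, interpolate endpoints linearly. GI50: concentration for 50% inhibition of growth.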 Activity calls are given as the source filed them. Rule as the data show it: active = GI50 up to about 1.1 µM and inactive = higher.
Legend:
Test in all cases: NCI tumour cell line growth inhibition, 48 h
786-0 = test system: 786-0
A498 = test system: A498
A549 = test system: A549
ACHN = test system: ACHN
BT-549 = test system: BT-549
CAKI-1 = test system: CAKI-1
CCRF-CEM = test system: CCRF-CEM
COLO 205 = test system: COLO 205
DU-145 = test system: DU-145
EKVX = test system: EKVX
HCC 2998 = test system: HCC 2998
HCT-116 = test system: HCT-116
HCT-15 = test system: HCT-15
HL-60 = test system: HL-60
HOP-62 = test system: HOP-62
HOP-92 = test system: HOP-92
HT-29 = test system: HT-29
Hs-578T = test system: Hs-578T
IGROV-1 = test system: IGROV-1
K562 = test system: K562
KM12 = test system: KM12
LOX IMVI = test system: LOX IMVI
M14 = test system: M14
MDA-MB-231 = test system: MDA-MB-231
MDA-MB-435 = test system: MDA-MB-435
MDA-N = test system: MDA-N
MOLT-4 = test system: MOLT-4
Malme-3M = test system: Malme-3M
NCI-H226 = test system: NCI-H226
NCI-H23 = test system: NCI-H23
NCI-H460 = test system: NCI-H460
NCI-H522 = test system: NCI-H522
NCI/ADR-RES = test system: NCI/ADR-RES
OVCAR-3 = test system: OVCAR-3
OVCAR-4 = test system: OVCAR-4
OVCAR-5 = test system: OVCAR-5
OVCAR-8 = test system: OVCAR-8
PC-3 = test system: PC-3
RPMI-8226 = test system: RPMI-8226
RXF 393 = test system: RXF 393
SF-268 = test system: SF-268
SF-295 = test system: SF-295
SF-539 = test system: SF-539
SK-MEL-28 = test system: SK-MEL-28
SK-MEL-5 = test system: SK-MEL-5
SK-OV-3 = test system: SK-OV-3
SN12C = test system: SN12C
SNB-19 = test system: SNB-19
SNB-75 = test system: SNB-75
SR = test system: SR
SW-620 = test system: SW-620
T47D = test system: T47D
TK-10 = test system: TK-10
U-251 = test system: U-251
UACC-257 = test system: UACC-257
UACC-62 = test system: UACC-62
UO-31 = test system: UO-31
SK-MEL-2 = test system: SK-MEL-2

With C#CCOCC12C=CC(O1)C1COC(=O)C12 (stereo not drawn) the GI50 (786-0) was > 100 µM (inactive), the GI50 (A498) was > 100 µM (inactive) and the GI50 (A549) was > 100 µM (inactive). For the same compound, the GI50 (ACHN) was > 100 µM (inactive), the GI50 (BT-549) was > 100 µM (inactive) and the GI50 (CAKI-1) was > 100 µM (inactive). For the same compound, the GI50 (CCRF-CEM) was > 100 µM (inactive), the GI50 (COLO 205) was > 100 µM (inactive) and the GI50 (DU-145) was > 100 µM (inactive). The GI50 (EKVX) was > 100 µM (inactive), the GI50 (HCC 2998) was > 100 µM (inactive) and the GI50 (HCT-116) was > 100 µM (inactive). For the same compound, the GI50 (HCT-15) was greater than 100 µM, the GI50 (HL-60) was > 100 µM (inactive) and the GI50 (HOP-62) was > 100 µM (inactive). The GI50 (HOP-92) was 7.14 µM (inactive), the GI50 (HT-29) was > 100 µM (inactive) and the GI50 (Hs-578T) was > 100 µM (inactive). For the same compound, the GI50 (IGROV-1) was > 100 µM (inactive), the GI50 (K562) was > 100 µM (inactive) and the GI50 (KM12) was > 100 µM (inactive). For the same compound, the GI50 (LOX IMVI) was > 100 µM (inactive), the GI50 (M14) was > 100 µM (inactive) and the GI50 (MDA-MB-231) was > 100 µM (inactive). For the same compound, the GI50 (MDA-MB-435) was > 100 µM (inactive), the GI50 (MDA-N) was > 100 µM (inactive) and the GI50 (MOLT-4) was > 100 µM (inactive). The GI50 (Malme-3M) was > 100 µM (inactive), the GI50 (NCI-H226) was > 100 µM (inactive) and the GI50 (NCI-H23) was > 100 µM (inactive). The GI50 (NCI-H460) was > 100 µM (inactive), the GI50 (NCI-H522) was > 100 µM (inactive) and the GI50 (NCI/ADR-RES) was > 100 µM (inactive). For the same compound, the GI50 (OVCAR-3) was > 100 µM (inactive), the GI50 (OVCAR-4) was > 100 µM (inactive) and the GI50 (OVCAR-5) was > 100 µM (inactive). The GI50 (OVCAR-8) was > 100 µM (inactive), the GI50 (PC-3) was > 100 µM (inactive) and the GI50 (RPMI-8226) was > 100 µM (inactive). The GI50 (RXF 393) was > 100 µM (inactive), the GI50 (SF-268) was > 100 µM (inactive) and the GI50 (SF-295) was > 100 µM (inactive). For the same compound, the GI50 (SF-539) was > 100 µM (inactive), the GI50 (SK-MEL-28) was > 100 µM (inactive) and the GI50 (SK-MEL-5) was > 100 µM (inactive). For the same compound, the GI50 (SK-OV-3) was > 100 µM (inactive), the GI50 (SN12C) was > 100 µM (inactive) and the GI50 (SNB-19) was > 100 µM (inactive). The GI50 (SNB-75) was > 100 µM (inactive), the GI50 (SR) was > 100 µM (inactive) and the GI50 (SW-620) was > 100 µM (inactive). The GI50 (T47D) was > 100 µM (inactive), the GI50 (TK-10) was > 100 µM (inactive) and the GI50 (U-251) was > 100 µM (inactive). The GI50 (UACC-257) was > 100 µM (inactive), the GI50 (UACC-62) was > 100 µM (inactive) and the GI50 (UO-31) was > 100 µM (inactive).
CCOc1ccccc1Nc1ccc(N)cc1S(=O)(=O)O was tested, and the GI50 (786-0) was > 100 µM (inactive), the GI50 (A498) was > 100 µM (inactive) and the GI50 (A549) was > 100 µM (inactive). For the same compound, the GI50 (ACHN) was > 100 µM (inactive), the GI50 (BT-549) was > 100 µM (inactive) and the GI50 (CAKI-1) was > 100 µM (inactive). For the same compound, the GI50 (DU-145) was > 100 µM (inactive), the GI50 (EKVX) was > 100 µM (inactive) and the GI50 (HCC 2998) was > 100 µM (inactive). For the same compound, the GI50 (HCT-116) was > 100 µM (inactive), the GI50 (HCT-15) was greater than 100 µM and the GI50 (HOP-62) was > 100 µM (inactive). For the same compound, the GI50 (HOP-92) was > 100 µM (inactive), the GI50 (HT-29) was > 100 µM (inactive) and the GI50 (Hs-578T) was > 100 µM (inactive). The GI50 (IGROV-1) was > 100 µM (inactive), the GI50 (K562) was > 100 µM (inactive) and the GI50 (KM12) was > 100 µM (inactive). The GI50 (LOX IMVI) was > 100 µM (inactive), the GI50 (M14) was > 100 µM (inactive) and the GI50 (MDA-MB-231) was > 100 µM (inactive). For the same compound, the GI50 (MDA-MB-435) was > 100 µM (inactive), the GI50 (MDA-N) was > 100 µM (inactive) and the GI50 (MOLT-4) was > 100 µM (inactive). For the same compound, the GI50 (Malme-3M) was > 100 µM (inactive), the GI50 (NCI-H226) was > 100 µM (inactive) and the GI50 (NCI-H23) was > 100 µM (inactive). For the same compound, the GI50 (NCI-H460) was > 100 µM (inactive), the GI50 (NCI-H522) was > 100 µM (inactive) and the GI50 (NCI/ADR-RES) was > 100 µM (inactive). For the same compound, the GI50 (OVCAR-3) was > 100 µM (inactive), the GI50 (OVCAR-4) was > 100 µM (inactive) and the GI50 (OVCAR-5) was > 100 µM (inactive). For the same compound, the GI50 (PC-3) was > 100 µM (inactive), the GI50 (RXF 393) was > 100 µM (inactive) and the GI50 (SF-268) was > 100 µM (inactive). The GI50 (SF-295) was > 100 µM (inactive), the GI50 (SK-MEL-28) was > 100 µM (inactive) and the GI50 (SK-MEL-2) was > 100 µM (inactive). For the same compound, the GI50 (SK-MEL-5) was > 100 µM (inactive), the GI50 (SN12C) was > 100 µM (inactive) and the GI50 (SNB-19) was > 100 µM (inactive). The GI50 (SNB-75) was > 100 µM (inactive), the GI50 (SR) was > 100 µM (inactive) and the GI50 (SW-620) was > 100 µM (inactive). For the same compound, the GI50 (T47D) was > 100 µM (inactive), the GI50 (TK-10) was > 100 µM (inactive) and the GI50 (U-251) was > 100 µM (inactive). For the same compound, the GI50 (UACC-257) was > 100 µM (inactive), the GI50 (UACC-62) was > 100 µM (inactive) and the GI50 (UO-31) was > 100 µM (inactive).

From ChEMBL document CHEMBL1201862, “PubChem BioAssay data set” (2004)
